Data reported in patent US20220062240A1, “METHODS OF TREATING CANCER USING A CLK INHIBITOR” (BioSplice Therapeutics, Inc., priority 2018, published 2022).
pEC50: −log10 of the molar value. Where two headings read alike, the source gives them in different places.

Key:
CLK2 = target: T1, CLK2 (Homo sapiens, UniProt P49760); test: CLK2 kinase activity assay (Z-lyte, Ser/Thr 6 peptide); format: biochemical; details: recombinant CLK2 kinase, ATP 60 μM; read-out: EC50
T1 construct: purchased Thermo Fisher (Life Technologies), Z'-LYTE Kinase Assay Kits
Description: All reactions were performed in duplicate.

BT-549 = test: CellTiter-Glo Viability Assay, breast cancer; format: cell-based; details: Homo sapiens, 96 h; BT-549, breast cancer, four days; read-out: EC50
CAMA1 = test: CellTiter-Glo Viability Assay, breast cancer; format: cell-based; details: Homo sapiens, CAMA-1, 96 h; CAMA1, breast cancer, four days; read-out: EC50
DU4475 = test: CellTiter-Glo Viability Assay, breast cancer; format: cell-based; details: Homo sapiens, DU-4475, 96 h; DU4475, breast cancer, four days; read-out: EC50
HCC1599 = test: CellTiter-Glo Viability Assay, breast cancer; format: cell-based; details: Homo sapiens, 96 h; HCC1599, breast cancer, four days; read-out: EC50
MCF7 = test: CellTiter-Glo Viability Assay, breast cancer; format: cell-based; details: Homo sapiens, 96 h; MCF7, breast cancer, four days; read-out: EC50
MDA-MB-231-Luc = test: CellTiter-Glo Viability Assay, breast cancer; format: cell-based; details: Homo sapiens, 96 h; MDA-MB-231-Luc, breast cancer, four days; read-out: EC50
T47D = test: CellTiter-Glo Viability Assay, breast cancer; format: cell-based; details: Homo sapiens, 96 h, breast cancer, four days, read-out: EC50
ZR-75-1 = test: CellTiter-Glo Viability Assay, breast cancer; format: cell-based; details: Homo sapiens, 96 h; ZR-75-1, breast cancer, four days; read-out: EC50
all 50 cell lines = test: CellTiter-Glo Viability Assay, average across all cell lines; format: cell-based; details: Homo sapiens; across all 50 cell lines; read-out: average EC50 for inhibition of cancer cell proliferation
Procedure, shortened: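 Cancer cell lines of several tumour types plated at 300-3,000 cells/well and exposed to compound in duplicate for four days at 37° C, 5% CO2, with DMSO-treated controls. Viability read by CellTiter-Glo luminescence (ATP content); EC50 derived from dose-response curves.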

[1] = tested on: colorectal cancer (6 cell lines); test: CellTiter-Glo Viability Assay, colorectal cancer; format: cell-based; details: Homo sapiens; SW480 cell line; inhibition of cancer cell proliferation; read-out: Colorectal cancer, EC50 (μM) SW480
[2] = tested on: haematopoietic & lymphoid tumors (13 cell lines); test: CellTiter-Glo Viability Assay, haematopoietic & lymphoid tumors; format: cell-based; details: Homo sapiens, inhibition of cancer cell proliferation
[3] = tested on: liver cancer (3 cell lines); test: CellTiter-Glo Viability Assay, liver cancer; format: cell-based; details: Homo sapiens, inhibition of cancer cell proliferation
[4] = tested on: lung cancer (4 cell lines); test: CellTiter-Glo Viability Assay, lung cancer; format: cell-based; details: Homo sapiens, inhibition of cancer cell proliferation
[5] = tested on: ovarian cancer (4 cell lines); test: CellTiter-Glo Viability Assay, ovarian cancer; format: cell-based; details: Homo sapiens, inhibition of cancer cell proliferation
[6] = tested on: pancreatic cancer (8 cell lines); test: CellTiter-Glo Viability Assay, pancreatic cancer; format: cell-based; details: Homo sapiens, inhibition of cancer cell proliferation
[7] = tested on: prostate cancer (5 cell lines); test: CellTiter-Glo Viability Assay, prostate cancer; format: cell-based; details: Homo sapiens
CLK3 = CLK3 (Homo sapiens, UniProt P49761); test: CLK3 kinase activity assay (Z-lyte, Ser/Thr 18 peptide)
Chain of CLK3 (P49761 whole entry): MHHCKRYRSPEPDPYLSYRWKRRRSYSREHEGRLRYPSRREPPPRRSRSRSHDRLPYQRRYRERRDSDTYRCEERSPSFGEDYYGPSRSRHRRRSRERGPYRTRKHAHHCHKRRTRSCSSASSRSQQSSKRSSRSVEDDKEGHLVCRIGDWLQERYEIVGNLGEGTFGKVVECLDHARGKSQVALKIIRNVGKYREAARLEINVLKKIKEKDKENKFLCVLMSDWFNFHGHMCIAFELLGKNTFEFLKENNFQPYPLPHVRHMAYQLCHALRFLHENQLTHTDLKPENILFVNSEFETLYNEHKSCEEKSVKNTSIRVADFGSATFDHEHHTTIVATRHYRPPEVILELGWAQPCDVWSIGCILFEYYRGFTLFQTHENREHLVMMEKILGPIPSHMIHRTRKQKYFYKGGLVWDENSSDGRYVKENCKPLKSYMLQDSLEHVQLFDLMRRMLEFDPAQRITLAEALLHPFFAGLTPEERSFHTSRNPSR

T1 sequence (P49760 whole entry): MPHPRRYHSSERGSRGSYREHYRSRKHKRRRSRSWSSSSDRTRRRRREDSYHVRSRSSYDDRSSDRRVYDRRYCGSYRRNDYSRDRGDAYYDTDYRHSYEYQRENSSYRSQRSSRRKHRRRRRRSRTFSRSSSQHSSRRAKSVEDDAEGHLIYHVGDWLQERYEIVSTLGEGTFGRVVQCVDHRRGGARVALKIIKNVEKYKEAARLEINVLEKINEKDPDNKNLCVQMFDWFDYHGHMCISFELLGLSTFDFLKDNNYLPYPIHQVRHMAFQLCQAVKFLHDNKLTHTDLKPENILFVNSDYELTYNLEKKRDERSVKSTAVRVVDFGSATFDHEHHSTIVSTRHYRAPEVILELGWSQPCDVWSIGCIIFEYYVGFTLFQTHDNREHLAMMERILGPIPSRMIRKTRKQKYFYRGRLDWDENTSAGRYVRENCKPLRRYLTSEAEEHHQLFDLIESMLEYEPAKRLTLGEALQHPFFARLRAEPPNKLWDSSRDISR

pEC50 (CLK2): 8.77
pEC50 (BT-549): 6.64
pEC50 (CAMA1): 6.33
pEC50 (DU4475): 6.92
pEC50 (HCC1599): 6.58
pEC50 (MCF7): 6.20
pEC50 (MDA-MB-231-Luc): 6.35
pEC50 (T47D): 6.33
pEC50 (ZR-75-1): 6.68
EC50 [1]: 0.123 µM
EC50 ([2]; DND41, DND-41 cell line, read-out: Haematopoietic & Lymphoid tumors, EC50 (μM) DND-41): 0.186 µM
EC50 ([2]; MV4-11, MV-4-11 cell line, read-out: Haematopoietic & Lymphoid tumors, EC50 (μM) MV-4-11): 0.071 µM
EC50 ([2]; Rec1, REC-1 cell line, read-out: Haematopoietic & Lymphoid tumors, EC50 (μM) REC-1): 0.812 µM
EC50 ([2]; SU-DHL-4, SUDHL4 cell line, read-out: Haematopoietic & Lymphoid tumors, EC50 (μM) SUDHL4): 0.138 µM
EC50 ([2]; HL-60 cell line, read-out: Haematopoietic & Lymphoid tumors, EC50 (μM) HL-60): 0.488 µM
EC50 ([2]; JM1 cell line, read-out: Haematopoietic & Lymphoid tumors, EC50 (μM) JM1): 0.175 µM
EC50 ([2]; JURKAT, Clone E6-1 cell line, read-out: Haematopoietic & Lymphoid tumors, EC50 (μM) JURKAT, Clone E6-1): 0.624 µM
EC50 ([2]; JeKo-1 cell line, read-out: Haematopoietic & Lymphoid tumors, EC50 (μM) JeKo-1): 0.14 µM
EC50 ([2]; KASUMI-1 cell line, read-out: Haematopoietic & Lymphoid tumors, EC50 (μM) KASUMI-1): 0.275 µM
EC50 ([2]; Loucy cell line, read-out: Haematopoietic & Lymphoid tumors, EC50 (μM) Loucy): 0.217 µM
EC50 ([2]; MOLT-4 cell line, read-out: Haematopoietic & Lymphoid tumors, EC50 (μM) MOLT-4): 0.383 µM
EC50 ([2]; TF-1 cell line, read-out: Haematopoietic & Lymphoid tumors, EC50 (μM) TF-1): 0.92 µM
EC50 ([2]; TOLEDO cell line, read-out: Haematopoietic & Lymphoid tumors, EC50 (μM) TOLEDO): 0.269 µM
pEC50 ([3]; SNU-398, SNU398 cell line, read-out: Liver cancer, EC50 SNU398): 7.23
pEC50 ([3]; HEPG2 cell line, read-out: Liver cancer, EC50 HEPG2): 6.40
pEC50 ([3]; PLC/PRF/5 cell line, read-out: Liver cancer, EC50 PLC/PRF/5): 5.83
EC50 ([4]; A-427, A427 cell line, read-out: Lung cancer, EC50 (μM) A427): 0.243 µM
EC50 ([4]; HCC78, HCC-78 cell line, read-out: Lung cancer, EC50 (μM) HCC-78): 0.725 µM
EC50 ([4]; NCI-H460 cell line, read-out: Lung cancer, EC50 (μM) NCI-H460): 0.759 µM
EC50 ([4]; NCI-H522 cell line, read-out: Lung cancer, EC50 (μM) NCI-H522): 0.396 µM
EC50 ([5]; PA-1, PA1 cell line, read-out: Ovarian cancer, EC50 (μM) PA1): 0.2 µM
EC50 ([5]; TOV112D, TOV-112D cell line, read-out: Ovarian cancer, EC50 (μM) TOV-112D): 0.155 µM
EC50 ([5]; OV-90 cell line, read-out: Ovarian cancer, EC50 (μM) OV-90): 0.179 µM
EC50 ([5]; OVCAR-3 cell line, read-out: Ovarian cancer, EC50 (μM) OVCAR-3): 0.127 µM
pEC50 ([6]; BXPC-3, BxPC3 cell line, read-out: Pancreatic cancer, EC50 BxPC3): 6.44
pEC50 ([6]; CAPAN-1, Capan1 cell line, read-out: Pancreatic cancer, EC50 Capan1): 6.30
pEC50 ([6]; Capan-2, Capan2 cell line, read-out: Pancreatic cancer, EC50 Capan2): 6.44
pEC50 ([6]; MIA PaCa-2 cell line, read-out: Pancreatic cancer, EC50 MIA PaCa-2): 6.80
pEC50 ([6]; PANC 05.04 cell line, read-out: Pancreatic cancer, EC50 PANC 05.04): 6.37
pEC50 ([6]; PANC-1 cell line, read-out: Pancreatic cancer, EC50 PANC-1): 6.09
pEC50 ([6]; UPAFII cell line, read-out: Pancreatic cancer, EC50 UPAFII): 6.39
pEC50 ([7]; DU-145, read-out: Prostate cancer EC50 Du-145): 6.27
pEC50 ([7]; PC-3, PC3 cell line, inhibition of cancer cell proliferation, read-out: Prostate cancer EC50 PC3): 6.53
pEC50 ([7]; 22Rv1 cell line, inhibition of cancer cell proliferation, read-out: Prostate cancer EC50 22Rv1): 6.42
pEC50 ([7]; LNCap clone FGC cell line, inhibition of cancer cell proliferation, read-out: Prostate cancer EC50 LNCap clone FGC): 6.20
pEC50 ([7]; VCaP (Sigma) cell line, inhibition of cancer cell proliferation, read-out: Prostate cancer EC50 VCaP (Sigma)): 6.21
pEC50 (CLK3): 6.32
SMILES: Cc1n[nH]c2ccc(-c3cncc(N[C@H]4CC[C@@H](N)CC4)n3)cc12 [Compound 64]
pEC50 (all 50 cell lines): 6.40
